Assay results from patent publication US11446280B2, “Compounds and methods for the treatment of microbial infections” (Versitech Limited, priority 2017, dated 2022).
≈ marks a conversion by molar mass, not a printed value.

Columns and labels:
[1] = test system: S. aureus pigment formation (staphyloxanthin production); test: In vitro pigment inhibition / staphyloxanthin production in S. aureus; type: cell-based, Staphylococcus aureus; details: S. aureus USA300, staphyloxanthin methanol extract OD 450 nm, compounds 300 nM to 700 nM, NP16 = 1
Protocol: S. aureus was propagated in Brain Heart Infusion broth (BHI) or on BHI agar (Oxoid). The in vitro pigment inhibition studies were performed by S. aureus USA300 cultured in BHI with or without the presence of inhibitor compounds at 37° C. and 250 rpm for 36-48 hours. The bacteria were washed twice with PBS prior to the staphyloxanthin purification with methanol. The OD of the extracts were monitor at 450 nm using DTX880 multi-plate reader spectrophotometer (Beckman). The concentration range tested for the compounds were between 300 nM to 700 nM, and control groups were added with equal volume of DMSO.
(§1) The IC50 values were obtained by fitting the inhibition data to a normal dose-response curve in SigmaPlot (CA).
(§2) The cytotoxicity of NP-16 and some of it analogues was tested against Raw 264.7 cells, and the cell tolerance of each compounds were documented in Table 3. Along with the in vitro staphyloxanthin production of the NP-16 analogues were being tested, the compounds can exert staphyloxanthin production inhibition. The staphyloxanthin from the overnight-cultured bacteria were extracted with methanol and quantified in via spectrophotometry. The results were presented in relative ratio to NP-16 in both the inhibition ratio as well as the TC50 in Table 3 (compound/analogue numbers correspond to those listed in Table 1).

Raw 264.7 cells = test: Cytotoxicity in Raw 264.7 cells (MTT assay); type: cell-based; parameters: unit not given here; details: highest concentration 500 μM
Protocol: (§3) The cytotoxicity of NP-16 and some of it analogues in Raw 264.7 cells was also evaluated by MTT (3-[4,5-dimethylthiazol-2-yl]-2,5-diphenyltetrazolium bromide) assay according to manufacturer's instructions. A toxic control (1%) SDS was included to ensure the MTT assay was working properly. The highest concentration of NP-16 analogues used was 500 μM due to solubility limitations. SigmaPlot 11.0 (SPSS, IL) was used for graph plotting. Experiments were carried out in triplicate and repeated twice.
as §2

[2] = test system: polymorphonuclear leukocytes; details: at high concentrations, reference [14]; cited from earlier work
[3] = target: 4,4-diapophytoene desaturase (CrtN) (Staphylococcus aureus, UniProt Q7A3E2); details: reference [5]; cited from earlier work
Sequence of 4,4-diapophytoene desaturase (CrtN) (Q7A3E2 whole entry): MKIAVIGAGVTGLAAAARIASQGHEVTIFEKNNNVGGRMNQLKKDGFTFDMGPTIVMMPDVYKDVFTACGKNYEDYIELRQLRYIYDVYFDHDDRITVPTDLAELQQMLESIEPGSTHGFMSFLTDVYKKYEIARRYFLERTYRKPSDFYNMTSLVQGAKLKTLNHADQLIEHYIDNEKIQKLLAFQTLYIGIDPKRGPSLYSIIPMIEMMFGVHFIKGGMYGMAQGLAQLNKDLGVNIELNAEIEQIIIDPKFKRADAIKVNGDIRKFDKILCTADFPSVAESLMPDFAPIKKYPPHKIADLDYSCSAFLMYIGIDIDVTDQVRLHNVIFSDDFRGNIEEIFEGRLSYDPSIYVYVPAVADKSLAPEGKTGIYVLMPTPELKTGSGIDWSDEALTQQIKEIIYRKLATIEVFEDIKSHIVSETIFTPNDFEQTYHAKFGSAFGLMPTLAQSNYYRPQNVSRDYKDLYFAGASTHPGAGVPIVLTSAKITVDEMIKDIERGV

MDCK cells = test: Cytotoxicity in MDCK cells (MTT assay); type: cell-based; details: up to 500 μM
Protocol: (§4) The cytotoxicity of NP16 in MDCK cells was evaluated by MTT (3-[4,5-dimethylthiazol-2-yl]-2,5-diphenyltetrazolium bromide) assay according to manufacturer's instructions. A toxic control (1%) SDS was included to ensure the MTT assay was effective. The highest concentration of NP16 that could be used was 500 μM due to solubility limitations. SigmaPlot 11.0 (SPSS, IL) was used for graph plotting. Experiments were repeated twice in triplicate.
as §1

[4] = Solubility limit in cytotoxicity testing; type: physicochemical; details: cytotoxicity (MTT) assay medium; read-out: Highest concentration that could be used due to solubility limitations
Protocol: as §4, §3

| Compound | Relative ratio to NP16 based on inhibition ratio [1] | TC50 to Raw 264.7 cells (Raw 264.7 cells) | other results |
| --- | --- | --- | --- |
| O=C(/C=C/c1ccccc1Br)Nc1ccc(S(=O)(=O)N2CCCC2)cc1 [Compound 12, 3-(6-bromophenyl)-N-[4-(1-pyrrolidinylsulfonyl)phenyl]acryl-amide] | 2.35 | >200 | – |
| Cc1ccc(/C=C/C(=O)Nc2ccc(S(=O)(=O)N3CCCC3)cc2)cc1 [Compound 14, 3-(4-methylphenyl)-N-[4-(1-pyrrolidinylsulfonyl)phenyl]acryl-amide] | 0.83 | >200 | – |
| O=C(/C=C/c1ccc(O)cc1)Nc1ccc(S(=O)(=O)N2CCCC2)cc1 [Compound 16, 3-(4-hydroxylphenyl)-N-[4-(1-pyrrolidinylsulfonyl)phenyl]acryl-amide] | 0.33 | 75 | – |
| CC(=O)Oc1ccccc1/C=C/C(=O)Nc1ccc(S(=O)(=O)N2CCCC2)cc1 [Compound 18, 3-(6-acetoxylphenyl)-N-[4-(1-pyrrolidinylsulfonyl)phenyl]acryl-amide] | 0.35 | ~150 | – |
| Cc1ccccc1/C=C/C(=O)Nc1ccc(S(=O)(=O)N2CCCC2)cc1 [Compound 15, 3-(6-methylphenyl)-N-[4-(1-pyrrolidinylsulfonyl)phenyl]acryl-amide] | 1.73 | >200 | – |
| CN(C/C=C/c1ccccc1)Cc1cccc2ccccc12 [naftifine] | – | – | Chemotaxis, chemokinesis, chemiluminescence and superoxide anion production of polymorphonuclear leukocytes [2]: suppress |
| CC(=O)Oc1cccc(/C=C/C(=O)Nc2ccc(S(=O)(=O)N3CCCC3)cc2)c1 [Compound 17, 3-(5-acetoxylphenyl)-N-[4-(1-pyrrolidinylsulfonyl)phenyl]acryl-amide] | 0.58 | ~75 | – |
| CC(=O)Oc1ccc(/C=C/C(=O)Nc2ccc(S(=O)(=O)N3CCCC3)cc2)cc1 [Compound 19, 3-(4-acetoxylphenyl)-N-[4-(1-pyrrolidinylsulfonyl)phenyl]acryl-amide] | 0.86 | ~150 | – |
| O=C(/C=C/c1cccc(Br)c1)Nc1ccc(S(=O)(=O)N2CCCC2)cc1 [Compound 11, 3-(5-bromophenyl)-N-[4-(1-pyrrolidinylsulfonyl)phenyl]acryl-amide] | 1.03 | >200 | – |
| c1ccc(Nc2ccccc2)cc1 [Diphenylamine] | – | – | Inhibition of CrtN [3]: high micromolar level |
| O=C(/C=C/c1ccccc1)Nc1ccc(S(=O)(=O)N2CCCC2)cc1 [Compound 1, 3-phenyl-N-[4-(1-pyrrolidinylsulfonyl)phenyl]acryl-amide] | – | >200 | Effect on the growth of MDCK cells (MDCK cells): no effect; solubility [4]: 500 µM (≈ 178 µg/mL) |
| O=C(/C=C/c1ccc(Br)cc1)Nc1ccc(S(=O)(=O)N2CCCC2)cc1 [Compound 13, 3-(4-bromophenyl)-N-[4-(1-pyrrolidinylsulfonyl)phenyl]acryl-amide] | 0.25 | >200 | – |
| O=C(/C=C/c1cccc(-c2ccccc2)c1)Nc1ccc(S(=O)(=O)N2CCCC2)cc1 [Compound 20, 3-(5-phenylphenyl)-N-[4-(1-pyrrolidinylsulfonyl)phenyl]acryl-amide] | 0.61 | >200 | – |
